Measured values from patent publication US20090036540A1, “Guanylhydrazones in Methods of Treatment or Diagnosis as Modulators of Signal Transduction” (Cytokine PharmaSciences, Inc., priority 2003, published 2009).

Legend:
4/4 macrophages = test: Cytotoxic effect in 4/4 macrophages; format: cell-based, murine; conditions: Semapimod concentrations ≦1 μM
[1] = tested on: Peripheral Blood Mononuclear Cells; test: PepChip kinome array: in vitro phosphorylation of peptide array by lysates of LPS-stimulated PBMCs; format: cell-based, human; conditions: PBMC lysate, 1.0 μM CNI-1493, 100 ng/ml LPS
Description: Peripheral Blood Mononuclear Cells (PBMCs) were isolated from peripheral blood from healthy volunteers using standard density-gradient centrifugation over Ficoll-Paque Plus (Amersham Pharmacia Biotech AB, Uppsala, Sweden) after washing in resuspension in IMDM supplemented with 10% FBS, penicillin, streptomycin and amphotericin (hereafter referred to as complete IMDM).
For kinome array samples, 10^7 PBMCs were suspended in 5 ml media (IMDM supplemented with 1.0% human serum). LPS stimulation consisted of a […] (37° C., 5% CO2) with 100 ng/ml LPS (E. coli, serotype 0111:B4). CNI treated PBMCs were maintained in media dosed with 1.0 μM CNI-1493 (Cytokine PharmaSciences, Inc.) 1 hour before and during incubation for LPS stimulation. Stimulations were terminated by an ice-cold PBS wash. PBMCs were lysed in 200 μl cell lysis buffer (20 mM Tris-HCl (pH 7.5), 150 mM NaCl, 1 mM Na2EDTA, 1 mM EGTA, 1% Triton, 2.5 mM sodium pyrophosphate, 1 mM MgCl2, 1 mM beta-glycerophosphate, 1 mM Na3VO4, 1 mM NaF, 1 μg/ml leupeptin, 1 μg/ml aprotinin, 1 mM PMSF) and the volume of the cell lysate were equalised with dH2O. The cell lysates were subsequently cleared on a 0.22 μm filter. PepChip incubation mix was produced by adding 10 μl of filter-cleared activation mix (50% glycerol, 50 μM ATP, 0.05% v/v Brij-35, 0.25 mg/ml BSA, ^33P-γ-ATP (1000 kBq)). Next, the PepChip mix is added onto the chip and the chip is kept at 37° C. in a humidified stove for 90 minutes. Subsequently, the PepChip was washed once with TBST, twice in 2M NaCl and twice in demineralised H2O and air-dry the PepChip slips. The experiments were performed three times in duplicate. The average inter-experimental variance in relative values was less than 5% for all spots.
The chips were exposed to a phosphoimager plate for 72 hours and the spots were analysed on AIDA analysing software. For graphical visualisation of the spots in FIG. 2 the data of four arrays was averaged to eliminate false positives.

In the case of C/C(=N\NC(=N)N)c1cc(NC(=O)CCCCCCCCC(=O)Nc2cc(/C(C)=N/NC(=N)N)cc(/C(C)=N/NC(=N)N)c2)cc(/C(C)=N/NC(=N)N)c1 [Semapimod], the cytotoxic effect (4/4 macrophages) is reported as “did not have a cytotoxic effect”, the “LPS + CNI: peptide phosphorylation, Kinase p34cdc2, Substrate Vimentin” value ([1]; Control 192, LPS 214) is reported as 300 and the “LPS + CNI: peptide phosphorylation, Kinase CKII, Substrate Lamin B R” value ([1]; Control 214, LPS 1736) is reported as 250. The “LPS + CNI: peptide phosphorylation, Kinase p34cdc2, Substrate c-Src” value ([1]; Control 230, LPS 248) was 270, the “LPS + CNI: peptide phosphorylation, Kinase CKII, Substrate TOPII” value ([1]; Control 231, LPS 900) was 900 and the “LPS + CNI: peptide phosphorylation, Kinase CKII, Substrate Lamin D” value ([1]; Control 242, LPS 822) was 320. The “LPS + CNI: peptide phosphorylation, Kinase Auto, Substrate PKG” value ([1]; Control 246, LPS 8100) was 320, the “LPS + CNI: peptide phosphorylation, Kinase GRK, Substrate Tau” value ([1]; Control 248, LPS 230) was 250 and the “LPS + CNI: peptide phosphorylation, Kinase JAK, Substrate STAT1a/b” value ([1]; Control 248, LPS 7704) was 231. For the same molecule, the “LPS + CNI: peptide phosphorylation, Kinase Cdc2, Substrate CKII” value ([1]; Control 268, LPS 1728) was 265, the “LPS + CNI: peptide phosphorylation, Kinase CytoK Rec, Substrate FPS” value ([1]; Control 270, LPS 5512) was 265 and the “LPS + CNI: peptide phosphorylation, Kinase CK II?, Substrate TOPII” value ([1]; Control 274, LPS 280) was 300. For the same molecule, the “LPS + CNI: peptide phosphorylation, Kinase PKA, Substrate MBP” value ([1]; Control 280, LPS 1250) was 265, the “LPS + CNI: peptide phosphorylation, Kinase Scr-family?, Substrate PTP-2C” value ([1]; Control 287, LPS 5960) was 250 and the “LPS + CNI: peptide phosphorylation, Kinase PKA, Substrate HSP27” value ([1]; Control 288, LPS 1072) was 298. The “LPS + CNI: peptide phosphorylation, Kinase PKC, Substrate HSP27” value ([1]; Control 291, LPS 280) was 300, the “LPS + CNI: peptide phosphorylation, Kinase PKA, Substrate v-Rel” value ([1]; Control 291, LPS 2574) was 291 and the “LPS + CNI: peptide phosphorylation, Kinase GSK3, Substrate GS” value ([1]; Control 312, LPS 320) was 250. For the same molecule, the “LPS + CNI: peptide phosphorylation, Kinase p34cdc2, Substrate CKII” value ([1]; Control 320, LPS 560) was 291, the “LPS + CNI: peptide phosphorylation, Kinase PKA, Substrate Tau” value ([1]; Control 340, LPS 340) was 250 and the “LPS + CNI: peptide phosphorylation, Kinase PKA, Substrate c-Rel” value ([1]; Control 421, LPS 250) was 261. The “LPS + CNI: peptide phosphorylation, Kinase p34cdc2, Substrate AP-1” value ([1]; Control 460, LPS 548) was 274, the “LPS + CNI: peptide phosphorylation, Kinase PKA, Substrate MBP” value ([1]; Control 536, LPS 822) was 248 and the “LPS + CNI: peptide phosphorylation, Kinase CaM-II, Substrate MBP” value ([1]; Control 600, LPS 265) was 680. For the same molecule, the “LPS + CNI: peptide phosphorylation, Kinase PKA, Substrate GS” value ([1]; Control 795, LPS 7980) was 340, the “LPS + CNI: peptide phosphorylation, Kinase PKA/Ca2+, Substrate Trp-5-MO” value ([1]; Control 1164, LPS 23925) was 1305 and the “LPS + CNI: peptide phosphorylation, Kinase PKA, Substrate GS” value ([1]; Control 1440, LPS 1020) was 3450. The “LPS + CNI: peptide phosphorylation, Kinase PKC, Substrate Lamin B1” value ([1]; Control 2016, LPS 268) was 1072, the “LPS + CNI: peptide phosphorylation, Kinase PKC, Substrate MBP” value ([1]; Control 2376, LPS 198) was 319 and the “LPS + CNI: peptide phosphorylation, Kinase PKA, Substrate P450” value ([1]; Control 2412, LPS 19980) was 265. For the same molecule, the “LPS + CNI: peptide phosphorylation, Kinase PKC, Substrate ACC-a” value ([1]; Control 2750, LPS 10692) was 861, the “LPS + CNI: peptide phosphorylation, Kinase CKII, Substrate TOPII” value ([1]; Control 3836, LPS 320) was 291 and the “LPS + CNI: peptide phosphorylation, Kinase Src, Substrate Annexin2” value ([1]; Control 4438, LPS 8745) was 287. The “LPS + CNI: peptide phosphorylation, Kinase PKC, Substrate EIF4E” value ([1]; Control 4494, LPS 41272) was 6699, the “LPS + CNI: peptide phosphorylation, Kinase and Substrate not given” value ([1]; Control 4960, LPS 530) was 254 and the “LPS + CNI: peptide phosphorylation, Kinase CKI, Substrate GS” value ([1]; Control 5616, LPS 13386) was 300. For the same molecule, the “LPS + CNI: peptide phosphorylation, Kinase CaM-II, Substrate Vimentin” value ([1]; Control 6930, LPS 4147) was 248.
